In this assay the test system is eNOS promoter. The assay is described as follows: Activation of eNOS transcription (eNOS promoter-luciferase reporter gene assay). The following applies: for maximal fold induction: read-out: TIR (max). The format is cell-based, human. As for the experimental part: Measurement of activation of eNOS transcription Activation of eNOS transcription was measured as described in detail in Li et al. “Activation of protein kinase C alpha and/or epsilon enhances transcription of the human endothelial nitric oxide synthase gene”, Mol. Pharmacol. 1998; 53: 630-637. Briefly, a 3.5 kB long fragment 5′ of the starting codon of the eNOS gene was cloned, sequenced and cloned in firefly luciferase expression plasmids to monitor activation of the eNOS promoter by reporter gene activity. A human endothelial cell line stable transfected and expressing this promoter-reporter construct was used for compound testing. Cells were incubated for 18 h with compounds. All compounds were dissolved in sterile DMSO. A final concentration of 0.5% DMSO in complete medium was allowed. Induction of reporter gene expression in these cells was measured using a standard luciferase assay system (Promega, Cat. No E150) according to the manufacturer's instructions. Luciferase induction in cells incubated with compounds were compared to those incubated with solvent alone. The ratio of both activities (transcription induction ratio, TIR) was plotted as a function of compound concentration. […] EC50 values of transcription induction ratios as a function of compound concentration were determined graphically.

[1] abbreviates: Homo sapiens, 18 h, maximum transcription induction ratio (luciferase with compound / solvent alone), 18 h incubation.
[2] abbreviates: Homo sapiens, Endothelial cell, 18 h, EC50 of transcription induction ratio, determined graphically, human endothelial cell line, 18 h incubation, read-out: EC-50.
Where [3] appears, read: EC50 of transcription induction ratio, determined graphically, human endothelial cell line, 18 h incubation, read-out: EC-50.

Like-named read-outs stand apart in the source and are kept apart here.

Regarding `CC(C)S(=O)(=O)c1csc(C(=O)NC2Cc3ccccc3C2)c1Cl` [Compound 265, 3-CHLORO-4-(PROPANE-2-SULFONYL)-THIOPHENE-2-CARBOXYLIC ACID INDAN-2-YLAMIDE], under setting [1], the maximal fold induction was 2.7. In addition, the EC50 under setting [2] was found to be 0.183 µM.

Regarding `CCCC(=O)Nc1cccc(C(=O)NC2Cc3ccccc3C2)c1` [Compound 375, 3-BUTYRYLAMINO-N-INDAN-2-YL-BENZAMIDE], under setting [1], the maximal fold induction came out at 2.3. Besides, the EC50 under setting [2] was found to be 8 µM.

`O=C(NC1Cc2ccccc2C1)c1ccc(Cl)cc1` [Compound 69, 4-CHLORO-N-INDAN-2-YL-BENZAMIDE]: under setting [1], the maximal fold induction was 4.2. Moreover, under setting [2], the EC50 stood at 0.4 µM.

Turning to `CCOc1ccc(C(=O)NC2Cc3ccccc3C2)c(OC(C)=O)c1` [Compound 6, ACETIC ACID 5-ETHOXY-2-(INDAN-2-YL-CARBAMOYL)-PHENYL ESTER], the maximal fold induction under setting [1] stood at 2.55. Further, the EC50 under setting [2] was 1.2 µM.

Take `Cc1cc(C)c(C(=O)NC2Cc3ccccc3C2)cn1` [Compound 189, N-INDAN-2-YL-4,6-DIMETHYL-NICOTINAMIDE]: under setting [1], the maximal fold induction was 2.2. For the same compound, under setting [2], the EC50 amounted to 10 µM.

Consider `O=C(NC1Cc2cccc(C(F)(F)F)c2C1)c1ccc(F)cc1` (stereo not shown) [Compound 439, 4-FLUORO-N-(4-TRIFLUOROMETHYL-INDAN-2-YL)-BENZAMIDE], for which, under setting [1], the maximal fold induction turned out to be 2.6. For the same compound, under setting [2], the EC50 came to 8.9 µM.

For `COc1c(Br)cccc1C(=O)NC1Cc2ccccc2C1` [Compound 253, 3-BROMO-N-INDAN-2-YL-2-METHOXY-BENZAMIDE], the maximal fold induction under setting [1] was found to be 2.2. The EC50 under setting [2] came out at 13 µM.

Take `O=C(NC1Cc2ccccc2C1)c1sc2cccc(Cl)c2c1Cl` [Compound 329, 3,4-DICHLORO-BENZO[B]THIOPHENE-2-CARBOXYLIC ACID INDAN-2-YLAMIDE]: the maximal fold induction under setting [1] is 1.5. Moreover, under setting [2], the EC50 stood at 2.2 µM.

Take `O=C(NC1Cc2ccccc2C1)c1ccc(Cl)c(Cl)c1` [Compound 314, 3,4-DICHLORO-N-INDAN-2-YL-BENZAMIDE]: the maximal fold induction under setting [1] stood at 2.2. Besides, the EC50 under setting [2] is 12 µM.

For `CS(=O)(=O)c1csc(C(=O)NC2Cc3ccccc3C2)c1Cl` [Compound 321, 3-CHLORO-4-METHANESULFONYL-THIOPHENE-2-CARBOXYLIC ACID INDAN-2-YLAMIDE], the maximal fold induction under setting [1] turned out to be 2.5. For the same compound, the EC50 under setting [2] stood at 9.6 µM.

Regarding `O=C(NC1Cc2cccc(C=CC(=O)N3CCOCC3)c2C1)c1ccc(F)cc1` (stereo not shown) [Compound 412, 4-FLUORO-N-[4-(3-MORPHOLIN-4-YL-3-OXO-PROPENYL)-NDAN-2-YL]-BENZAMIDE], the EC50 under setting [3] came to 1 µM. In addition, where the note is “maximum transcription induction ratio (luciferase with compound / solvent alone), 18 h incubation”, the “TIR (max)” value came out at 2.5.

On to `Nc1c(C(=O)NC2Cc3ccccc3C2)cnn1-c1ccccc1` [Compound 427, 5-AMINO-1-PHENYL-1H-PYRAZOLE-4-CARBOXYLIC ACID INDAN-2-YLAMIDE], for which, under setting [1], the maximal fold induction stood at 2.5. For the same compound, under setting [2], the EC50 was found to be 3.7 µM.

As for `Cc1cc(C(=O)NC2Cc3ccccc3C2)c(C)[nH]1` [Compound 216, 2,5-DIMETHYL-1H-PYRROLE-3-CARBOXYLIC ACID INDAN-2-YLAMIDE], under setting [1], the maximal fold induction was 2.8. Also, the EC50 under setting [2] was 0.7 µM.

As to `O=C(NC1Cc2ccccc2C1)c1ccc(C(=O)C(F)(F)F)cc1` [Compound 256, N-INDAN-2-YL-4-(2,2,2-TRIFLUORO-ACETYL)-BENZAMIDE], the maximal fold induction under setting [1] was determined as 2.5. Also, the EC50 under setting [2] was 11 µM.

Consider `O=C(NC1Cc2ccccc2C1)c1ccccc1F` [Compound 273, 2-FLUORO-N-INDAN-2-YL-BENZAMIDE], for which, under setting [1], the maximal fold induction is 2.8. Further, the EC50 under setting [2] stood at 2.6 µM.

`Nc1c(C(=O)NC2Cc3ccccc3C2)cnn1-c1ccccn1` [Compound 386A, 5-AMINO-1-PYRIDIN-2-YL-1H-PYRAZOLE-4-CARBOXYLIC ACID INDAN-2-YLAMIDE]: under setting [1], the maximal fold induction stood at 3.3. Also, under setting [2], the EC50 turned out to be 5.1 µM.

Consider `O=C(NC1Cc2ccccc2C1)c1sc2cc(F)ccc2c1Cl` [Compound 324, 3-CHLORO-6-FLUORO-BENZO[B]THIOPHENE-2-CARBOXYLIC ACID INDAN-2-YLAMIDE], for which the maximal fold induction under setting [1] worked out at 1.7. The EC50 under setting [2] stood at 2.1 µM.

Regarding `O=C(NC1Cc2ccccc2C1)c1ccc(-c2cccnc2)cc1` [Compound 435, N-INDAN-2-YL-4-PYRIDIN-3-YL-BENZAMIDE], under setting [1], the maximal fold induction was found to be 2.5. Besides, the EC50 under setting [2] came to 14 µM.

With `CCOc1ccc(C(=O)NC2Cc3ccccc3C2)c(O)c1` [Compound 23, 4-ETHOXY-2-HYDROXY-N-INDAN-2-YL-BENZAMIDE], under setting [1], the maximal fold induction was found to be 2.2. For the same compound, the EC50 under setting [2] is 5 µM.

For the compound `Cc1ccc2c(Cl)c(C(=O)NC3Cc4ccccc4C3)sc2c1` [Compound 332, 3-CHLORO-6-METHYL-BENZO[B]THIOPHENE-2-CARBOXYLIC ACID INDAN-2-YLAMIDE], the maximal fold induction under setting [1] worked out at 2. The EC50 under setting [2] was 4 µM.

Consider `O=C(NC1Cc2ccccc2C1)c1ccc(SC(F)(F)F)cc1` [Compound 246, N-INDAN-2-YL-4-TRIFLUOROMETHYLSULFANYL-BENZAMIDE], for which, under setting [1], the maximal fold induction was determined as 2.5. In addition, the EC50 under setting [2] worked out at 0.67 µM.

As for `COC(=O)c1cccc(C(=O)NC2Cc3ccccc3C2)c1` [Compound 243, N-INDAN-2-YL-ISOPHTHALAMIC ACID METHYL ESTER], under setting [1], the maximal fold induction was 2.8. Further, the EC50 under setting [2] came to 0.11 µM.

Regarding `O=C(NC1Cc2ccccc2C1)c1cc(F)c(Cl)cc1Cl` [Compound 262, 2,4-DICHLORO-5-FLUORO-N-INDAN-2-YL-BENZAMIDE], the maximal fold induction under setting [1] came to 2.8. Further, the EC50 under setting [2] was found to be 5.8 µM.

With `O=C(NC1Cc2ccccc2C1)c1cc(F)c(Cl)cc1F` [Compound 263, 4-CHLORO-2,5-DIFLUORO-N-INDAN-2-YL-BENZAMIDE], under setting [1], the maximal fold induction was 2.5. Further, the EC50 under setting [2] worked out at 13 µM.

`O=C(NC1Cc2ccccc2C1)c1ccc(F)c(F)c1F` [Compound 320, 2,3,4-TRIFLUORO-N-INDAN-2-YL-BENZAMIDE]: under setting [1], the maximal fold induction turned out to be 3. The EC50 under setting [2] was determined as 12 µM.

In the case of `O=C(NC1Cc2ccccc2C1)c1cccc(Cl)c1F` [Compound 250, 3-CHLORO-2-FLUORO-N-INDAN-2-YL-BENZAMIDE], the maximal fold induction under setting [1] was determined as 2.5. Also, the EC50 under setting [2] stood at 58 µM.

As to `O=C(NC1Cc2cc(Br)c(Br)cc2C1)c1ccc(F)cc1` [Compound 397, N-(5,6-DIBROMO-INDAN-2-YL)-4-FLUORO-BENZAMIDE], under setting [1], the maximal fold induction stood at 1.7. Also, under setting [2], the EC50 was 30 µM.

Take `Nc1ccccc1C(=O)NC1Cc2ccccc2C1` [Compound 73, 2-AMINO-N-INDAN-2-YL-BENZAMIDE]: the maximal fold induction under setting [1] amounted to 4. Besides, the EC50 under setting [2] was 0.7 µM.

With `Cc1cc(Br)c(C(=O)NC2Cc3ccccc3C2)s1` [Compound 364, 3-BROMO-5-METHYL-THIOPHENE-2-CARBOXYLIC ACID INDAN-2-YLAMIDE], the maximal fold induction under setting [1] was found to be 2.9. Also, under setting [2], the EC50 is 2.1 µM.

As for `Cc1cccc2c1CC(NC(=O)c1ccc(F)cc1)C2` (single isomer, unassigned; (-)) [Compound 1a, (−)-4-Fluoro-N-(4-methyl-indan-2-yl)-benzamide], the EC50 under setting [3] was found to be 6 µM. Further, the maximal fold induction under setting [1] is 2.8.

With `O=C(NC1Cc2ccccc2C1)c1ccc(F)c(Br)c1` [Compound 33, 3-BROMO-4-FLUORO-N-INDAN-2-YL-BENZAMIDE], the maximal fold induction under setting [1] is 3.3. The EC50 under setting [2] is 4 µM.

`CSc1ccc(C(=O)NC2Cc3ccccc3C2)cc1` [Compound 292, N-INDAN-2-YL-4-METHYLSULFANYL-BENZAMIDE]: the maximal fold induction (Homo sapiens, 18 h) stood at 2.9. In addition, the EC50 (Homo sapiens, Endothelial cell, 18 h) was determined as 0.039 µM.

Regarding `O=C(NC1Cc2ccccc2C1)c1ccc2ccccc2c1` [Compound 295, NAPHTHALENE-2-CARBOXYLIC ACID INDAN-2-YLAMIDE], the maximal fold induction under setting [1] was determined as 2.4. In addition, the EC50 under setting [2] is 0.846 µM.

Consider `O=C(NC1Cc2ccccc2C1)c1ccc(Br)s1` [Compound 41, 5-BROMO-THIOPHEN-2-CARBOXYLIC ACID-INDAN-2-YLAMIDE], for which the maximal fold induction under setting [1] is 2.4. In addition, the EC50 under setting [2] was 0.18 µM.

Take `Cc1nc(C(F)(F)F)ccc1C(=O)NC1Cc2ccccc2C1` [Compound 237, N-INDAN-2-YL-2-METHYL-6-TRIFLUOROMETHYL-NICOTINAMIDE]: under setting [1], the maximal fold induction is 2.5. Further, the EC50 under setting [2] came out at 7.7 µM.

For `Cc1ccc2c(c1)CC(NC(=O)c1ccc(F)cc1)C2` (stereo not shown) [Compound 5, 4-FLUORO-N-(5-METHYL-INDAN-2-YL)-BENZAMIDE], the maximal fold induction under setting [1] was found to be 2.5. Moreover, the EC50 under setting [2] was determined as 30 µM.

For the compound `CCc1cccc2c1CC(NC(=O)c1ccc(F)cc1)C2` (stereo not shown) [Compound 428, N-(4-ETHYL-INDAN-2-YL)-4-FLUORO-BENZAMIDE], the maximal fold induction under setting [1] came out at 2.8. In addition, under setting [2], the EC50 is 0.841 µM.

As for `O=C(NC1Cc2ccccc2C1)c1ccc(-c2ccccn2)cc1` [Compound 436, N-INDAN-2-YL-4-PYRIDIN-2-YL-BENZAMIDE], the maximal fold induction under setting [1] was 2.6. Under setting [2], the EC50 came to 18 µM.

These data come from US7713963B2, “Acylated indanyl amines and their use as pharmaceuticals” (sanofi-aventis Deutschland GmbH, priority 2001, dated 2010).
